Experimental data published in publication PMC8022858, “Discovery of bone morphogenetic protein 7-derived peptide sequences that attenuate the human osteoarthritic chondrocyte phenotype” (Molecular Therapy. Methods & Clinical Development, 2021).

Tested on: OA-HACs with NKX3-2 knockdown
Experiment: NKX3-2 siRNA knockdown and peptide treatment, hypertrophy gene expression
Type: cell-based, human
Conditions: OA-HAC pool (n = 4 donors), then 100 nM peptide 24 h (Figure 5A); for chondrocyte hypertrophy-inhibiting bioactivity in control (scrambled siRNA) condition: 100 nM siRNA 24 h; for rescue of hypertrophy-inducing consequences of NKX3-2 knockdown: NKX3-2 siRNA 100 nM 24 h
Source text: A chondrocyte phenotypic consequence of exposure to peptides p[63−82] or p[113−132] is an overall attenuation of hypertrophy. Previously, we[17]^,[27] and others[29]^,[30] recognized NKX3-2 (BAPX1) as an important negative regulator of chondrocyte hypertrophy, and the hypertrophy-inhibiting action of BMP7 on OA-HACs is, at least in part, mediated via NKX3-2.[27] Taking into consideration that the ability to induce NKX3-2 expression was one of the screening criteria for the identification of the here-described, BMP7-derived peptides (Figures 2 and S2), we next investigated whether NKX3-2 is involved in the bioactivity of peptides p[63−82] and p[113−132]. By means of small interfering (si)RNA transfection, NKX3-2 expression was reduced in a pool of OA-HACs. […] Treatment of control conditions (scrambled siRNA) with peptide p[63−82] or p[113−132]confirmed the peptides’ chondrocyte hypertrophy-inhibiting bioactivity (Figure 5A).
Figure 5 Molecular characterization of peptides p[63−82] and p[113−132] (A) A pool of OA-HACs (n = 4 donors) was transfected with a scrambled siRNA or with an NKX3-2 siRNA (100 nM siRNA) and cultured for 24 h. Cultures were then exposed to peptide p[63−82] or p[113−132] (100 nM peptide). Samples were harvested 24 h later and analyzed for the expression of the indicated mRNAs (normalized to 28S rRNA). (B) SW1353 chondrocytic cells were transfected with BRE (SMAD1/5/8 reporter) or CAGA12 (SMAD2/3 reporter) firefly luciferase-reporter plasmids. A CMV-Gaussia plasmid was cotransfected as a transfection control. Cells were then cultured for 24 h and subsequently exposed to control, p[63−82], or p[113−132] for 8 h. Firefly and Gaussia bioluminescence were measured in cells and medium (respectively), and relative light units (RLUs) of firefly luciferase were normalized for the Gaussia luciferase signal. The normalized firefly luciferase signal of the control condition was set at 1, and peptide conditions were calculated relative to the control condition (FL/GL). Error bars represent mean ± SEM; statistical significance for peptide conditions versus siScrambled or siNKX3-2 (A) or control condition (B) as determined by unpaired two-tailed Student’s t test is represented as ∗p < 0.05, ∗∗p < 0.01, and ∗∗∗p < 0.001. […] An alanine-scanning bioactivity score (sum of the fold change gene expression of COL10A1, ALPL, MMP13, and COL2A1 plus NKX3-2 of the alanine-substituted peptides versus the wild-type p[63−82] peptide) was calculated for each alanine substitution in the amino acid sequence of peptide p[63−82] and is represented by the height of each letter on the y axis (data in Figure S4). […]

Row | Substance | chondrocyte hypertrophy-inhibiting bioactivity in control (scrambled siRNA) condition | rescue of hypertrophy-inducing consequences of NKX3-2 knockdown
1 | H-SVLYFDDSSNVILKKYRNMV-OH [p[113−132]] | confirmed | did not show rescue
2 | H-AAYYSEGESAFPLNSYMNAT-OH [p[63−82]] | confirmed | did not show rescue
